“Also recorded” adds a separate entry of the source.
Experiments:
CSM14.1 cells [1] = assay: Annexin V staining viability assay (flow cytometry), thapsigargin-treated undifferentiated CSM14.1 cells; assay type: cell-based, rat; conditions: hit compounds 25 μM, TG 15 μM
Method: Undifferentiated CSM14.1 cells were cultured as for FIG. 16. The next day, DMSO (a, b) (1% final volume), 100 μM Salubrinal (c, d) or 25 μM of hit compounds (1% final DMSO) was added. After two hrs, 15 μM TG was added to all wells except a and c. The plates were returned to culture for 24 hrs, then cells were recovered by trypsinization, transferred to 1.5 ml microcentrifuge tubes, and resuspended in 0.5 mL of Annexin V-binding solution. The percentage of annexin V-negative cells was determined by flow-cytometry (y-axis). Treatments and compounds were the same as in FIG. 16.
One method we have employed, for example, for confirming protection against TG-induced killing uses fluorochrome-conjugated annexin V staining with flow-cytometry analysis to evaluate the percentage cell viability by a method that is independent of the ATP content assay.
FIGS. 16 and 17 show the results of a secondary assay for evaluating the cytoprotective activity of the compounds. In FIG. 16, undifferentiated CSM14.1 cells were cultured at 10^4 cells per well of 24-well plates (Greiner Bio One). The next day, DMSO (a, b) (1% final volume), 100 μM Salubrinal (c, d) or 25 μM of hit compounds (1% final DMSO) was added. After two hrs, 15 μM TG was added to all wells except a and c. A conventional ATP assay was performed to measure survival rate. In FIG. 17 undifferentiated CSM14.1 cells were cultured at 10^4 cells per well of 24-well plates (Greiner Bio One). The next day, DMSO (a, b) (1% final volume), 100 μM Salubrinal (c, d) or 25 μM of hit compounds (1% final DMSO) was added. After two hrs, 15 μM TG was added to all wells except a and c. […] The percentage of annexin V-negative cells was determined by flow-cytometry (y-axis), using a FACSort instrument (Beckton-Dickinson). […]
7) The percentage of annexin V-negative cells was determined by flow-cytometry (y-axis), using a FACSort analysis facility in Burnham (Beckton & Dickinson)

[2] = system: PPC1, human prostate cancer; assay: Thapsigargin-induced death of PPC1 cells, ATP content assay; assay type: cell-based
Method: In addition to CSM14.1 cells, when tested at 25 μM, Compound 5962123 protected by >50% against thapsigargin-induced death of several tumor cell lines (HeLa human cervical cancer, SW1 melanoma cell, PPC1, human prostate cancer), mouse neural stem cell C17.2 (both differentiated [neuronal phenotype] and non-differentiated [stem cell phenotype]) as determined by ATP content assay, and primary rat cortical neurons as determined by microscopy assay measuring the percentage of NeuN-immunopositive cells with either normal or apoptotic nuclear morphology (Hoechst dye staining).
For PC12, cells were stimulated with 20 ng/ml NGF for five days; for C17.2, cells were stimulated with serum reduction, and 1% N2 incubation for three days; for CSM14.1, cells were cultured at 39° C. for 5-7 days.

CSM14.1 cells [3] = assay: Pathway selectivity: cell death induced by VP16, TNF plus cycloheximide or staurosporine in CSM14.1 cells; assay type: cell-based, rat; conditions: 25 μM, ATP content where stated
Method: The selectivity of compounds with respect to suppression of cell death induced by ER stress was determined by treating undifferentiated CSM14.1 cells with a variety of agents that induce apoptosis via the ER stress pathway (thapsigargin, tunicamycin), the mitochondrial pathway (VP16) or the death receptor pathway (TNF+cycloheximide [CHX]). Of the 26 hit compounds tested, 19 reduced cell death induced by thapsigargin and tunicamycin but not VP16 or TNF/CHX.
For the experiments shown in FIG. 18, undifferentiated CSM 14.1 cells were plated at 3,000 cells per well in 96-well plates (for the ATP assay) or at 1×10^4 cells per well in 24-well plates (for flow cytometry). The next day, cells were treated with DMSO (0.5%) or hit compounds 25 μM of a compound with 0.5% DMSO final concentration) for two hours, followed by treatment with various cell death-inducing reagents, including 15 μM Thapsigargin (TG) for 24 hrs, 10 μg/mL tunicamycin (TU) for 72 hrs, 2.5 μM staurosporine (STS) for 24 hrs, 50 μM VP16 for 48 hrs, or 30 ng/mL TNF plus 10 μg/mL cyclohexamide (CHX) for 24 hrs. Cellular ATP content was measured for staurosporine samples and TNF/CHX samples, normalizing data relative to cells treated with DMSO alone (the control) and presenting as a percentage of control. For measuring cell death resulting from treatment with tunicamycin and VP16, flow cytometry was used. All assays were performed in triplicate (mean ±SD).

CCN(CC)c1ccc(C2Nc3ccccc3NC3=C2C(=O)CC(c2ccccc2)C3)cc1 (stereo not shown) [Compound 5962123, 6-(4-diethylaminophenyl)-9-phenyl-5,6,8,9,10,11-hexahydrobenzo[c][1,5]benzodiazepin-7-one]
Protection against TG-induced cell death measured by annexin V staining (CSM14.1 cells [1]): confirmed | Protection against thapsigargin-induced death, PPC1 ([2]; 25 μM, ATP content assay): > 50% | Cytoprotective activity in thapsigargin-treated PPC-1 ([2]; ATP content assay): demonstrated | Cytoprotective activity, PPC1 (Result) ([2]; thapsigargin 15 μM, ATP content, compound ≦25 μM): + (+indicates >50% rescue of cell viability relative to untreated cells not exposed to thapsigargin at compound concentration of ≦25 μM) | Inhibition of cell death induced by TNF-α plus cycloheximide (CSM14.1 cells [3]): does not inhibit; also recorded: not active | Inhibition of cell death induced by VP-16 (CSM14.1 cells [3]): does not inhibit; also recorded: not active | Inhibition of cell death induced by staurosporine (CSM14.1 cells [3]): does not inhibit; also recorded: not active
